Laboratory results taken from patent US11976068B2 (CHIMERIX, INC., priority 2015, dated 2024).
Read-outs that look alike come from different tables or passages of the source.

Legend:
[1] = target: T1, human BCRP (Homo sapiens, UniProt Q9UNQ0); experiment: BCRP inhibition, bidirectional permeability of prazosin in MDCKII-BCRP monolayers; details: prazosin probe; inhibitor 1 μM Ko134 (positive control)
T1 sequence (Q9UNQ0 1-655): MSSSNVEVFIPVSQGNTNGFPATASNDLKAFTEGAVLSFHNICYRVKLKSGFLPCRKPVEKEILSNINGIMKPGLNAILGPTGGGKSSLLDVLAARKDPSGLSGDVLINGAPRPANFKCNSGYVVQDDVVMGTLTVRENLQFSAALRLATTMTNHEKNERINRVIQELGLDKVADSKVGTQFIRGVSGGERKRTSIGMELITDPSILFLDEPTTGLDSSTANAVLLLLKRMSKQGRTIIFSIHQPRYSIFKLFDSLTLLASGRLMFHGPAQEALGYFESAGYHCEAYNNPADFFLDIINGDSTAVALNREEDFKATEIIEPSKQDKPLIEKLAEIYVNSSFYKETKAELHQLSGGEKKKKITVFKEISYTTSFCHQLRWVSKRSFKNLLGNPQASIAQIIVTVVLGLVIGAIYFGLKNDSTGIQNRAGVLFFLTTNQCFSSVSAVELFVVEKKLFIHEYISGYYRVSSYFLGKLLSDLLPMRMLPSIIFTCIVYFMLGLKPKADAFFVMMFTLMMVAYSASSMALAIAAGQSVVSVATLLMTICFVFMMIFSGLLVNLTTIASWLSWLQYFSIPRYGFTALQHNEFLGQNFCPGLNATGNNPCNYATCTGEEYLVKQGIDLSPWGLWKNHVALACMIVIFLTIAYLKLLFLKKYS

[2] = test system: human cancer cells; experiment: Viability of human cancer cells at 72 hours post-treatment; type: cell-based; details: change in potency relative to ONC201; viability at 72 hours post-treatment
Description: A number of exemplary analogs of compound (1) were prepared based on the syntheses described here. For each of these compounds, the viability of human cancer cells at 72 hours post-treatment with the compound was measured.

[3] = test system: human colon cancer xenograft; experiment: Human colon cancer xenograft-bearing mice; type: in vivo; details: single dose, oral or intraperitoneal, compared to vehicle-treated control cohorts
[4] = target: human MDR1 (Homo sapiens, UniProt P08183); details: digoxin probe; inhibitor 10 μM Valspodar (positive control)
Sequence of human MDR1 (P08183 whole entry): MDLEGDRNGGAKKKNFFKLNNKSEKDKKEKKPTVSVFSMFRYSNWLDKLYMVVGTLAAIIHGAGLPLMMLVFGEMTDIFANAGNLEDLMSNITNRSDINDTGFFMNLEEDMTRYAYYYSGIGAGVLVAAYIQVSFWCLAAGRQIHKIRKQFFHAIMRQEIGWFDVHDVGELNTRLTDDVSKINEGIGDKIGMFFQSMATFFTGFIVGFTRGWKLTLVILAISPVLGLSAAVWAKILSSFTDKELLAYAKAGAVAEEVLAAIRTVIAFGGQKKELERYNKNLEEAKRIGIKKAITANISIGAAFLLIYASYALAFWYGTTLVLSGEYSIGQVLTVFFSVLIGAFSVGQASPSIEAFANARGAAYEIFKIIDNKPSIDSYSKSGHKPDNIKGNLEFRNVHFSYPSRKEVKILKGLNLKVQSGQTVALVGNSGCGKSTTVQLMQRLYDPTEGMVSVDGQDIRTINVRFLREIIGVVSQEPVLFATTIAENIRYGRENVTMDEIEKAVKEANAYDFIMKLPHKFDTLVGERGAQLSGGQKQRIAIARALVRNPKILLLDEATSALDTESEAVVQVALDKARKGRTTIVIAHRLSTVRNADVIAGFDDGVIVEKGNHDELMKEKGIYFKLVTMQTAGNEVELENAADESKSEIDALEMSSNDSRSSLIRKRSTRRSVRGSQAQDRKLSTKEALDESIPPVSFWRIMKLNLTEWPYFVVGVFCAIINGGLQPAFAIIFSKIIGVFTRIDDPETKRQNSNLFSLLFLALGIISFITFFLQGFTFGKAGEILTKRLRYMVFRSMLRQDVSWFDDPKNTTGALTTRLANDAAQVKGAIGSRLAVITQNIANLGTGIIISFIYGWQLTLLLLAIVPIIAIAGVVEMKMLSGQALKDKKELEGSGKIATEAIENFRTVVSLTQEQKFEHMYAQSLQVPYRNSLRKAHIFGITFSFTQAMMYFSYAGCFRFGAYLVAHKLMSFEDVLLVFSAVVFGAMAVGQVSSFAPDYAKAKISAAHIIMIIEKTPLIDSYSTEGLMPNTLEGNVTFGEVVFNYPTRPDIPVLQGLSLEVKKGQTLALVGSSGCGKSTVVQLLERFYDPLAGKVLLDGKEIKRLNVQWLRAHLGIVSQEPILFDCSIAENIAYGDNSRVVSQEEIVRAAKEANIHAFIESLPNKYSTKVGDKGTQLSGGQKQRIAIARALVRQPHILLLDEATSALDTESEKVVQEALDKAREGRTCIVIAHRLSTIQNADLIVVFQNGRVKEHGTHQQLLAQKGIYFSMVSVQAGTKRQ

[5] = test system: CYP 3A4; experiment: CYP mRNA induction in cryopreserved human hepatocytes
[6] = test system: CYP 2B6; experiment: as above
[7] = test system: CYP 1A2; experiment: as above
[8] = donor CDP, NC: flumazenil (25 μM)
[9] = donor two, NC: flumazenil (25 μM)

With `CC(C)C[C@H]1c2[nH]c3ccccc3c2C[C@H]2C(=O)N[C@@H](CCC(=O)OC(C)(C)C)C(=O)N21` [Ko134, reference compound] the “% Inhibition (Efflux Ratio)” value [1] was 98.7%.
With `O=C1C2=C(CCN(Cc3ccccc3)C2)N2CCN=C2N1Cc1cc(F)cc(F)c1` [ONC210] the “Relative Potency” value [2] was “A (A Indicates a potency increase of >2-fold of ONC201)”.
`O=C1C2=C(CCN(Cc3ccccc3)C2)N2CCN=C2N1Cc1ccc(Cl)c(Cl)c1` [ONC211] was tested, and the “Relative Potency” value [2] was “A (A Indicates a potency increase of >2-fold of ONC201)”.
With `O=C1C2=C(CCN(Cc3ccccc3)C2)N2CCN=C2N1Cc1ccc(C(F)(F)F)cc1` [ONC212] the tumor volume [3] was “significant reduction of tumor volume”.
For `O=C1C2=C(CCN(Cc3ccccc3)C2)N2CCN=C2N1Cc1ccccc1F` [ONC217], the “Relative Potency” value [2] was “B (B Indicates potency that is within 2-fold of ONC201)”.
With `O=C1C2=C(CCN(Cc3ccccc3)C2)N2CCN=C2N1CC1CCON1` (stereo not drawn) [ONC222] the “Relative Potency” value [2] was “B (B Indicates potency that is within 2-fold of ONC201)”.
For `C/C=C/C[C@@H](C)C(=O)[C@H]1C(=O)N[C@@H](C(C)C)C(=O)N(C)CC(=O)N(C)[C@@H](CC(C)C)C(=O)N[C@@H](C(C)C)C(=O)N(C)[C@@H](CC(C)C)C(=O)N[C@@H](C)C(=O)N[C@H](C)C(=O)N(C)[C@@H](CC(C)C)C(=O)N(C)[C@@H](CC(C)C)C(=O)N(C)[C@@H](C(C)C)C(=O)N1C` [Valspodar, reference compound], the “% Inhibition (Efflux Ratio)” value [4] was 96.8%.
With `CCOC(=O)c1ncn2c1CN(C)C(=O)c1cc(F)ccc1-2` [flumazenil] the “mRNA Induction Fold” value [5] was 1.37 fold, the “mRNA Induction Fold” value ([5]; CYP 3A4, donor CDP, NC: flumazenil (25 μM)) was 1.03 fold and the “mRNA Induction Fold” value ([5]; CYP 3A4, donor two, NC: flumazenil (25 μM)) was 0.93 fold. The “mRNA Induction Fold” value [6, 8] was 1.16 fold, the “mRNA Induction Fold” value [6, 9] was 1.27 fold and the “mRNA Induction Fold” value [7, 8] was 1.16 fold. For the same compound, the “mRNA Induction Fold” value ([7]; donor one, NC: flumazenil (25 μM)) was 1.31 fold and the “mRNA Induction Fold” value [7, 9] was 1.34 fold.
With `COc1ccc2[nH]c([S+]([O-])Cc3ncc(C)c(OC)c3C)nc2c1` (stereo not drawn) [omeprazole] the “mRNA Induction Fold” value ([7]; donor CDP, PC: omeprazole (50 μM)) was 28.71 fold, the “mRNA Induction Fold” value ([7]; donor one, PC: omeprazole (50 μM)) was 35.53 fold and the “mRNA Induction Fold” value ([7]; donor two, PC: omeprazole (50 μM)) was 31.06 fold.
With `CCC1(c2ccccc2)C(=O)NC(=O)NC1=O` [phenobarbital] the “mRNA Induction Fold” value ([6]; donor CDP, PC: phenobarbital (750 μM)) was 8.56 fold, the “mRNA Induction Fold” value ([6]; donor one, PC: phenobarbital (750 μM)) was 14.38 fold and the “mRNA Induction Fold” value ([6]; donor two, PC: phenobarbital (750 μM)) was 8.98 fold.
